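Results reflect a 48-hour exposure of cells in 96-well plates to compound at five concentrations. TGI: concentration producing complete growth inhibition.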
Tests used:
Assay in all cases: inhibition of tumour cell growth, NCI panel, 48 h
786-0 renal = tested on: 786-0 renal
A549 NSCLC = tested on: A549 NSCLC
CCRF-CEM leukemia = tested on: CCRF-CEM leukemia
HL-60(TB) leukemia = tested on: HL-60(TB) leukemia
HOP-62 NSCLC = tested on: HOP-62 NSCLC
IGROV1 ovarian = tested on: IGROV1 ovarian
K-562 leukemia = tested on: K-562 leukemia
NCI-H226 lung = tested on: NCI-H226 lung
NCI-H460 lung = tested on: NCI-H460 lung
NCI-H522 lung = tested on: NCI-H522 lung
OVCAR-3 ovarian = tested on: OVCAR-3 ovarian
SK-MEL-28 melanoma = tested on: SK-MEL-28 melanoma
SK-OV-3 ovarian = tested on: SK-OV-3 ovarian
SNB-78 CNS = tested on: SNB-78 CNS
SW-620 colon = tested on: SW-620 colon
TK-10 renal = tested on: TK-10 renal
HT29 colon = tested on: HT29 colon
OVCAR-5 ovarian = tested on: OVCAR-5 ovarian
HS 578T breast = tested on: HS 578T breast
PC-3 prostate = tested on: PC-3 prostate

Compound | TGI (786-0 renal) [µM] | TGI (A549 NSCLC) [µM] | TGI (CCRF-CEM leukemia) [µM] | TGI (HL-60(TB) leukemia) [µM] | TGI (HOP-62 NSCLC) [µM] | TGI (IGROV1 ovarian) [µM] | TGI (K-562 leukemia) [µM] | TGI (NCI-H226 lung) [µM] | TGI (NCI-H460 lung) [µM] | TGI (NCI-H522 lung) [µM] | TGI (OVCAR-3 ovarian) [µM] | TGI (SK-MEL-28 melanoma) [µM] | TGI (SK-OV-3 ovarian) [µM] | TGI (SNB-78 CNS) [µM] | TGI (SW-620 colon) [µM] | TGI (TK-10 renal) [µM] | TGI (HT29 colon) [µM] | TGI (OVCAR-5 ovarian) [µM] | TGI (HS 578T breast) [µM] | TGI (PC-3 prostate) [µM]
CSc1nsc(-c2ccccc2)[s+]1 | > 100 | > 100 | > 100 | > 100 | > 100 | > 100 | > 100 | > 100 | > 100 | > 100 | > 100 | > 100 | > 100 | > 100 | > 100 | > 100 |  |  |  | 
CCCSCC(P(=O)(O)O)P(=O)(O)O |  | > 100 | > 100 | > 100 | > 100 | > 100 | > 100 | > 100 | > 100 | > 100 | > 86.9 | > 100 | > 100 | > 100 | > 100 |  | > 100 | > 100 |  | 
Cc1cn(C2CC(O)C(CO)O2)c(=O)[nH]c1=O (stereo not given) | > 5000 | 4450 | 2390 | > 5000 | 4630 | > 5000 | > 5000 | > 5000 | > 5000 | > 4240 | > 2650 | > 5000 | > 4890 | > 5000 | > 5000 | > 5000 | > 5000 | > 5000 | > 5000 | > 5000
O=c1c2sc(=S)n(-c3ccc(F)cc3)c2ncn1/N=C/c1ccc(F)cc1F | 34.1 | > 100 | > 100 | > 100 | 30.7 | 89.1 | > 100 | 87 | > 100 | > 100 | 61.5 | > 100 | 53.7 |  | > 100 | 40 | > 100 | > 100 | 76.3 | > 100
CC1(C)CCCC2OC2CCC(C)(C)C1=O (stereo not given) | > 100 | > 100 | > 100 | > 100 | > 100 | > 100 | > 100 | > 100 | > 100 | > 100 | > 100 | > 100 | > 100 |  | > 100 | > 100 | > 100 | > 100 | > 100 | > 100
CCN(CC)CCn1c(=O)c2cccnc2n2c3c(=O)n(C)c(=O)n(C)c3nc12 | > 100 | > 100 | > 100 | > 100 | > 100 | > 100 | > 100 | > 100 | > 100 | > 100 | > 100 | > 100 | > 100 |  | > 100 | 57.4 | > 100 | > 100 | > 100 | > 100
C=CCSc1nnc2cc(CN3CCCC3)c(-c3ccc(Cl)cc3)nn12 | 33.7 | > 100 | > 100 | 43.5 | 45.4 | 44.3 | > 100 | 26.7 | 36.1 | 42.6 | 36 | 47.8 | 55.5 |  | 93 | 43.7 | 32.5 | 41.5 | > 100 | 35.3
Cc1ccc(-c2[nH]c(=O)n(C3OC(CO)C(O)C(O)C3O)c(=O)c2C#N)cc1 (stereo not given) | > 100 | > 100 | > 100 | > 100 | > 100 | > 100 | > 100 | > 100 | > 100 | > 100 | > 100 | > 100 | > 100 |  | > 100 | > 100 | > 100 | > 100 | > 100 | > 100
CCOC(=O)c1nc2c(nc1C(=O)OCC)C(=O)c1ccccc1C2=O | 6.33 | 9.47 | > 100 | 1.55 | 3.78 | 23.8 | 4.46 | 1.5 | 3.73 | 4.23 | 2.81 | 3.01 | 5.97 |  | 3.77 | 8.83 | 9.06 | 2.24 | 0.766 | 11.2
CC(=O)Nc1nc(C#N)[nH]c1C#N | > 100 | > 100 | > 100 | > 100 | > 100 | > 100 | > 100 | > 100 | > 100 | > 100 | > 100 | > 100 | > 100 |  | > 100 | > 100 | > 100 | > 100 | > 100 | > 100

Source: PubChem BioAssay (NCI)
